Data on 41 molecules can be found in patent US20040110963A1, “Novel hydrazones” (priority 2001, published 2004).

≈ marks a conversion by molar mass, not a printed value. Some results are limits rather than exact numbers.

Assay [1] has as its target enzyme I of the bacterial phosphotransferase system (PTS) (Escherichia coli, UniProt P08839). In words: Assay for Enzyme I dependent PEP: peptide phosphotransferase activity (LDH-coupled, NADH read-out at 340 nm). The class given is biochemical. Particulars: enzyme I 0.75 μM, 0.8 mM PEP, pH 7.5; read-out: Inhibition of PTS (IC50 in μM). An excerpt:
The determination of activity of a compound of the present invention in the PTS may be summarized as follows:
Assay for Enzyme I Dependent PEP:
Peptide Phosphotransferase Activity. [formula]
To find inhibitors of Enzyme I of the PTS by high throughput screening, an in vitro assay based on spectrophotometric read out at 340 nm has been set up. The assay comprises of three major components, purified enzyme I in catalytic amounts, Phosphoenol Pyruvate (PEP) as the phosphoryl donor substrate and purified HPr as the phosphoryl acceptor substrate.
The assay couples the formation of pyruvate formed from PEP to lactate, catalyzed by lactate dehydrogenase. The disappearance of NADH, cofactor required by lactate dehydrogenase, is determined spectrophotometerically at 340 nm. The assay is done in a U-shaped microtiter plate format, and quantitation is done using microplate absorbance reader.
100 μl reaction mixture contained 0.8 mM PEP, 0.2 mM NADH, 3 μg lactate dehydrogenase (Boehringer Mannheim), 50 mM KPi pH=7.5, 2.5 mM dithiothreitol, 2.5 mM NaF, 5 mM MgCI2, and between 50 and 100 μM of the compound. The reaction is started by the addition of enzyme I (final concentration 0.75 μM). In a control experiment the compound is replaced by DMSO.

The test system of assay [2] is Staphylococcus aureus ATCC25923. In words: In vitro antibacterial activity (MIC, NCCLS M7-A5 dilution susceptibility test). The conditions noted are these: for MIC: read-out: Minimum Inhibitory Concentration (MIC) Staphylococcus aureus ATCC25923. The class given is cell-based. The method, then:
(§1) Antimicrobial susceptibility testing was performed in accordance with the National Committee for Clinical Laboratory Standards (NCCLS) procedure [M7-A5, 2001: Methods for Dilution Antimicrobial Susceptibility Tests for Bacteria That Grow Aerobically; Approved Standard-Fifth Edition American National Standard].

The next assay has as its system Escherichia coli DC2. The assay is described as above. The conditions noted are these: for MIC: read-out: Minimum Inhibitory Concentration (MIC) Escherichia coli DC2. The class given is cell-based. The procedure:
as §1

One may read the IC50 as the point on the concentration scale where inhibition reaches its midpoint.

`COc1cc(C(=O)NN=Cc2ccc(O)c(O)c2O)cc(OC)c1OC` [Example 4, 3,4,5-Trimethoxy-N′-(2,3,4-trihydroxy-benzylidene)-benzohydrazide]: the IC50 in assay [1] came to 15 µM. Also, the MIC (in assay [2]; with Escherichia coli DC2) was 128 µg/mL (≈ 353 µM) throughout.

For `O=C(NN=Cc1ccccc1O)c1cccc(C(F)(F)F)c1` [Example 32, 3-Trifluoromethyl-N′-(2-hydroxy-benzylidene)-benzohydrazide], the IC50 in assay [1] turned out to be 7 µM.

In the case of `COc1cc(C(=O)NN=Cc2cc(Cl)ccc2O)ccc1O` [Example 14, 4-Hydroxy-3-methoxy-N′-(5-chloro-2-hydroxy-benzylidene)-benzohydrazide], the half-inhibitory concentration (IC50) in assay [1] came to 25 µM. The MIC (in assay [2]; with Escherichia coli DC2) was 128 µg/mL (≈ 399 µM) each time.

As for `CN(N=Cc1ccc(O)c(O)c1O)C(=O)c1ccc(Cl)c(Cl)c1` [Example 53, 3,4-Dichloro-N-methyl-N′-(2,3,4-trihydroxy-benzylidene)-benzohydrazide], the MIC in assay [2] was 128 µg/mL (≈ 360 µM); with Escherichia coli DC2, over 128 µg/mL.

As for `Cc1cccc(C(=O)NN=Cc2cc(Cl)ccc2O)c1` [Example 20, 3-Methyl-N′-(5-chloro-2-hydroxy-benzylidene)-benzohydrazide], the IC50 in assay [1] came out at 4 µM.

In the case of `Cc1ccc(O)c(C=NNC(=O)c2ccccc2)c1` [Example 17, N′-(2-Hydroxy-5-methyl-benzylidene)-benzohydrazide], the IC50 in assay [1] was 6 µM.

Consider `O=C(NN=Cc1ccc(O)cc1O)c1cccc(C(F)(F)F)c1` [Example 6, 3-Trifluoromethyl-N′-(2,4-dihydroxy-benzylidene)-benzohydrazide], for which the IC50 in assay [1] amounted to 10 µM. The MIC in assay [2] was over 128 µg/mL; in the assay on Escherichia coli DC2 it was 32 µg/mL (≈ 98.7 µM).

Consider `CC(=NNC(=O)c1ccc(Cl)c(Cl)c1)c1ccc(O)c(O)c1O` [Example 52, 3,4-Dichloro-N′-[1-(2,3,4-dihydroxy-phenyl)-ethylidene]-benzohydrazide], for which the “Minimum Inhibitory Concentration (MIC) Staphylococcus aureus ATCC25923” value in assay [2] was determined as 4 micrograms/ml. In addition, in the assay on Escherichia coli DC2, the “Minimum Inhibitory Concentration (MIC) Escherichia coli DC2” value is reported as 64 micrograms/ml.

In the case of `COc1cccc(C(=O)NN=Cc2cc(O)ccc2O)c1` [Example 8, 3-Methoxy-N′-(2,5-dihydroxy-benzylidene)-benzohydrazide], in assay [1], the IC50 stood at 15 µM.

On to `O=C(NN=Cc1cc(O)c(O)cc1O)c1cccc(C(F)(F)F)c1` [Example 50, 3-Trifluoromethyl-N′-(2,4,5-trihydroxy-benzylidene)-benzohydrazide], for which the MIC in assay [2] is 32 µg/mL (≈ 94 µM); in the assay on Escherichia coli DC2, over 128 µg/mL.

As to `O=C(NN=Cc1ccc(O)c(O)c1O)c1ccc(Cl)c(Cl)c1` [Example 9, 3,4-Dichloro-N′-(2,3,4-trihydroxy-benzylidene)-benzohydrazide], the IC50 in assay [1] is 75 µM. In addition, the MIC in assay [2] stood at 8 µg/mL (≈ 23.5 µM); in the assay with Escherichia coli DC2 it was 32 µg/mL (≈ 93.8 µM).

On to `O=C(NN=Cc1cc(O)ccc1O)c1ccc(O)cc1` [Example 11, 4-Hydroxy-N′-(2,5-dihydroxy-benzylidene)-benzohydrazide], for which, in assay [1], the half-inhibitory concentration (IC50) is 0.5 µM.

For `COc1cccc(C(=O)NN=C(C)c2ccccc2O)c1` [Example 7, 3-Methoxy-N′-[1-(2-hydroxy-phenyl)-ethylidene]-benzohydrazide], the IC50 in assay [1] stood at 8 µM.

Turning to `CC(=NNC(=O)c1ccc(O)cc1)c1cc(O)ccc1O` [Example 35, 4-Hydroxy-N′-[1-(2,5-dihydroxy-phenyl)-ethylidene]-benzohydrazide], the IC50 in assay [1] stood at 1.75 µM.

For the molecule `O=C(NN=Cc1ccc(O)c(O)c1O)c1ccccc1` [Example 28, N′-(2,3,4-Trihydroxy-benzylidene)-benzohydrazide], the IC50 in assay [1] amounted to 3 µM.

In the case of `CC(=O)Nc1ccccc1C(C)=NNC(=O)c1ccccc1` [Example 23, N-[2-[1-(2-Benzoyl-hydrazono)-ethyl]-phenyl]-acetamide], the IC50 in assay [1] turned out to be 250 µM.

On to `CNc1ccccc1C(=O)NN=Cc1cc(O)ccc1O` [Example 19, 2-Methylamino-N′-(2,5-dihydroxy-benzylidene)-benzohydrazide], for which the IC50 in assay [1] is 2 µM.

`O=C(NN=Cc1ccc(O)c(O)c1O)c1cccc(C(F)(F)F)c1` [Example 51, 3-Trifluoromethyl-N′-(2,3,4-trihydroxy-benzylidene)-benzohydrazide]: the MIC came out at 8 µg/mL (≈ 23.5 µM) in assay [2] and 64 µg/mL (≈ 188 µM) in the assay with Escherichia coli DC2.

For the molecule `O=C(NN=Cc1cc(Cl)ccc1O)c1cccc(Cl)c1` [Example 38, 3-Chloro-N′-(2-hydroxy-5-chloro-benzylidene)-benzohydrazide], the IC50 in assay [1] came out at 75 µM.

In the case of `O=C(NN=Cc1cc(O)ccc1O)c1ccccc1` [Example 1, N′-(2,5-Dihydroxy-benzylidene)-benzohydrazide], the IC50 in assay [1] was determined as 15 µM. Further, the MIC in assay [2] stood at 64 µg/mL (≈ 250 µM); in the assay on Escherichia coli DC2, 128 µg/mL (≈ 499 µM).

In the case of `O=C(NN=Cc1cc(O)c(O)cc1O)c1ccc(Cl)cc1` [Example 47, 4-Chloro-N′-(2,4,5-trihydroxy-benzylidene)-benzohydrazide], the MIC was 8 µg/mL (≈ 26.1 µM) in assay [2] and 64 µg/mL (≈ 209 µM) with Escherichia coli DC2.

As for `CC(=NNC(=O)c1ccc(Cl)cc1)c1ccccc1N` [Example 24, 4-Chloro-N′-[1-(2-amino-phenyl)-ethylidene]-benzohydrazide], the IC50 in assay [1] worked out at 0.8 µM.

Consider `O=C(NN=Cc1cc(Cl)cc(Cl)c1O)c1ccccc1` [Example 48, N′-(2-Hydroxy-3,5-dichloro-benzylidene)-benzohydrazide], for which the figures for the MIC (in assay [2]; in the assay with Escherichia coli DC2) were 128 µg/mL (≈ 414 µM) and over 128 µg/mL, respectively.

Consider `CNc1ccccc1C(=O)NN=C(C)c1ccccc1O` [Example 22, 2-methylamino-N′-[1-(2-hydroxy-phenyl)-ethylidene]-benzohydrazide], for which, in assay [1], the IC50 worked out at 2 µM.

`Nc1ccc(Cl)cc1C(=O)NN=Cc1ccccc1O` [Example 5, 2-Amino-5-chloro-N′-(2-hydroxy-benzylidene)-benzohydrazide]: the half-maximal inhibitory concentration (IC50) in assay [1] was determined as 6 µM.

Take `O=C(NN=Cc1ccc(O)cc1O)c1ccc(Cl)cc1` [Example 37, 4-Chloro-N′-(2,4-dihydroxy-benzylidene)-benzohydrazide]: the IC50 in assay [1] was 20 µM.

`COc1cccc(C(=O)NN=Cc2ccccc2O)c1` [Example 27, 3-Methoxy-N′-(2-hydroxy-benzylidene)-benzohydrazide]: the IC50 in assay [1] turned out to be 7 µM.

For `CNc1ccccc1C(=O)NN=Cc1cc(Cl)ccc1O` [Example 18, 2-Methylamino-N′-(5-chloro-2-hydroxy-benzylidene)-benzohydrazide], the IC50 in assay [1] was determined as 4 µM.

`O=C(NN=Cc1cc(O)ccc1O)c1cccc(C(F)(F)F)c1` [Example 34, 3-Trifluoromethyl-N′-(2,5-dihydroxy-benzylidene)-benzohydrazide]: the IC50 in assay [1] stood at 15 µM.

For `O=C(NN=Cc1cc(O)ccc1O)c1cccc2ccccc12` [Example 3, N′-(2,5-Dihydroxy-benzylidene)-naphthalene-1-carbohydrazide], the IC50 in assay [1] was 6 µM.

For `COc1cccc(C(=O)NN=C(C)c2ccccc2N)c1` [Example 25, 3-Methoxy-N′-[1-(2-Amino-phenyl)-ethylidene]-benzohydrazide], in assay [1], the IC50 is 20 µM.

`O=C(NN=Cc1cc(O)ccc1O)c1ccc(Cl)c(Cl)c1` [Example 12, 3,4-Dichloro-N′-(2,5-dihydroxy-benzylidene)-benzohydrazide]: in assay [1], the IC50 amounted to 0.7 µM.

As for `O=C(NN=Cc1ccccc1O)c1ccc(Br)cc1` [Example 31, 4-Bromo-N′-(2-hydroxy-benzylidene)-benzohydrazide], in assay [1], the IC50 was found to be 75 µM.

For the molecule “4-chloro-N′-(2-hydroxy-3-chloro-benzylidene)-benzohydrazide [Example 36]”, in assay [1], the 50% inhibitory concentration (IC50) was determined as 100 µM.

Turning to `COc1cc(C(=O)NN=Cc2cc(O)ccc2O)ccc1O` [Example 16, N′-(2,5-Dihydroxy-benzylidene)-4-hydroxy-3-methoxy-benzohydrazide], the IC50 in assay [1] turned out to be 4 µM.

As to `O=C(Cc1c[nH]c2ccccc12)NN=Cc1ccccc1O` [Example 2, N′-(2-Hydroxy-benzylidene)-2-(1H-indol-3-yl)-acetohydrazide], the IC50 in assay [1] amounted to 50 µM.

In the case of `O=C(NN=Cc1cccc(O)c1O)c1ccccc1` [Example 26, N′-(2,3-Dihydroxy-benzylidene)-benzohydrazide], the IC50 in assay [1] was 50 µM.

Take `O=C(NN=Cc1cc(O)ccc1O)c1cccc(Cl)c1` [Example 13, 3-Chloro-N′-(2,5-dihydroxy-benzylidene)-benzohydrazide]: the IC50 in assay [1] was determined as 0.7 µM.

As to `O=C(NN=Cc1ccc(O)c(O)c1O)c1cccc(Cl)c1` [Example 49, 3-Chloro-N′-(2,3,4-trihydroxy-benzylidene)-benzohydrazide], the MIC in assay [2] turned out to be 16 µg/mL (≈ 52.2 µM); in the assay with Escherichia coli DC2, 64 µg/mL (≈ 209 µM).

For `CC(=NNC(=O)c1ccccc1)c1cc(O)ccc1O` [Example 15, N′-[1-(2,5-Dihydroxy-phenyl)-ethylidene]-benzohydrazide], the IC50 in assay [1] came out at 6 µM.

For the molecule `Cc1cccc(C(=O)NN=Cc2cc(O)ccc2O)c1` [Example 33, 3-Methyl-N′-(2,5-dihydroxy-benzylidene)-benzohydrazide], the IC50 in assay [1] was determined as 2 µM.
